Columns and labels:
Adenosine receptor A2a = Adenosine receptor A2a (Homo sapiens, UniProt P29274); assay: DRUGMATRIX: Adenosine A2A radioligand binding (ligand: […]); type: cell membranes, Membrane; settings: hek293; Not Active = under 50% inhibition at 10 µM
[1] = target: Matrix metalloproteinase-9 (Homo sapiens, UniProt P14780); assay: biochemical; type: cell-based;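 note: inhibition of isolated MMP-9 enzyme activity toward a synthetic peptide substrate, from the DrugMatrix protease screening panel; in other assays of this panel Not Active means under 50% inhibition at 10 µM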
Chain of Matrix metalloproteinase-9 (P14780 whole entry): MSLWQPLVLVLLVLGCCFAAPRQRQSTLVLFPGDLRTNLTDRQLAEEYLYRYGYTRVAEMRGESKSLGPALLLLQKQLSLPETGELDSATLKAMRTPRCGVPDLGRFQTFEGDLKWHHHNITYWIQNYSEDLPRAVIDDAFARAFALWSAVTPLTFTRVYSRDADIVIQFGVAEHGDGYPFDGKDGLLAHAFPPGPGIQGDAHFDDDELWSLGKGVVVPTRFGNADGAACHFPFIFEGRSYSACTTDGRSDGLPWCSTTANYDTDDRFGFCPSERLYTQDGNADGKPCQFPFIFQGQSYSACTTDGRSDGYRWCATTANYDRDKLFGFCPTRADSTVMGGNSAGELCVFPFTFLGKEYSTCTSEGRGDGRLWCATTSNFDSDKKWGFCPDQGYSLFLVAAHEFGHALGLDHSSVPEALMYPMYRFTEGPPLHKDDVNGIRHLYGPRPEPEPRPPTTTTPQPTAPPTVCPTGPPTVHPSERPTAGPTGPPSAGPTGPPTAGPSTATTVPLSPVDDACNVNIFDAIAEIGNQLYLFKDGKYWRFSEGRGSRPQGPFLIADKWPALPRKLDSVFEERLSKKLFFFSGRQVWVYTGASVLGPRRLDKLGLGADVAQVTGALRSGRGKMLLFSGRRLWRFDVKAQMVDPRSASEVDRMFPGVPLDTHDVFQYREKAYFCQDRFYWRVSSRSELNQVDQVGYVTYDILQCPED

[2] = DRUGMATRIX: Platelet-Derived Growth Factor (PDGF) radioligand binding (ligand: [125I] PDGF); type: cell-based; settings: nih3t3; Not Active = under 50% inhibition at 10 µM
[3] = DRUGMATRIX: Phosphodiesterase PDE3 enzyme inhibition (substrate: [3H]cAMP + cAMP); type: tissue-based, Homo sapiens; settings: platelet; Not Active = under 50% inhibition at 10 µM
[4] = target: T1, Alpha-1D adrenergic receptor (Homo sapiens, UniProt P25100); type: cell membranes, HEK293, Membrane; settings: hek293; note: in other assays of this panel Not Active means under 50% inhibition at 10 µM
T1 sequence (P25100 whole entry): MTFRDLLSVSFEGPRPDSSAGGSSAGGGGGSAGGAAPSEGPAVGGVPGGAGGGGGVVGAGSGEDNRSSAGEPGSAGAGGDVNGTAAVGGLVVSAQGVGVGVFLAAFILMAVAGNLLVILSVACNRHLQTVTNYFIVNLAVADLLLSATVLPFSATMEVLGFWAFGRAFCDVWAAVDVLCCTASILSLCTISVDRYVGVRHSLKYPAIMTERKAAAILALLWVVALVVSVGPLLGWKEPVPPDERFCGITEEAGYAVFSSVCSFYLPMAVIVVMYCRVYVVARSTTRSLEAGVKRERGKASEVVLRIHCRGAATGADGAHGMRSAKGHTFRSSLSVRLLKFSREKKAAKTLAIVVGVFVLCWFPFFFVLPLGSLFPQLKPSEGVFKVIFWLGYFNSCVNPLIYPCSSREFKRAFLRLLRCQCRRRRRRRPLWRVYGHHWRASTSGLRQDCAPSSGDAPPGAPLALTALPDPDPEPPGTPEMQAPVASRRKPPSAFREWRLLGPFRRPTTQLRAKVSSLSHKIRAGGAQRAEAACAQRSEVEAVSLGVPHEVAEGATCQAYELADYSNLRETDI

[5] = target: T2, Alpha-1B adrenergic receptor (Rattus norvegicus, UniProt P15823); assay: DRUGMATRIX: Alpha-1B adrenergic receptor radioligand binding (ligand: prazosin); type: cell membranes, Wistar, Liver, Membrane; settings: Not Active = under 50% inhibition at 10 µM
T2 sequence (P15823 whole entry): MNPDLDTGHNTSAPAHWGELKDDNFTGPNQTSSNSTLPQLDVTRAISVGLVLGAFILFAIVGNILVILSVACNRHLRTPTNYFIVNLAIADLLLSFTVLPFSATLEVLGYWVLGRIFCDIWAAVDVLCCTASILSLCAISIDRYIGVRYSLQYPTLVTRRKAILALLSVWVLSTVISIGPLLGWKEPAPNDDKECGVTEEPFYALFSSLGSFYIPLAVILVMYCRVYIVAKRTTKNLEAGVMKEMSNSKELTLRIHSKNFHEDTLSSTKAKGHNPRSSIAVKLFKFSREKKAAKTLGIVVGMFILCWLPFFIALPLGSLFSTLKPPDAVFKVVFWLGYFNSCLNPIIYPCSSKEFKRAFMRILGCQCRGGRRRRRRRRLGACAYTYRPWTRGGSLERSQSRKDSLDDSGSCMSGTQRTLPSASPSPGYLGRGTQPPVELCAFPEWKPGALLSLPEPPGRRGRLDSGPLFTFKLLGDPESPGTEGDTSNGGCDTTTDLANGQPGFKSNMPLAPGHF

[6] = target: Prostaglandin G/H synthase 1 (Homo sapiens, UniProt P23219); assay: biochemical; type: tissue-based, Platelet;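 note: inhibition of COX-1 enzyme activity, with arachidonic acid supplied as substrate; in other assays of this panel Not Active means under 50% inhibition at 10 µM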
Chain of Prostaglandin G/H synthase 1 (P23219 whole entry): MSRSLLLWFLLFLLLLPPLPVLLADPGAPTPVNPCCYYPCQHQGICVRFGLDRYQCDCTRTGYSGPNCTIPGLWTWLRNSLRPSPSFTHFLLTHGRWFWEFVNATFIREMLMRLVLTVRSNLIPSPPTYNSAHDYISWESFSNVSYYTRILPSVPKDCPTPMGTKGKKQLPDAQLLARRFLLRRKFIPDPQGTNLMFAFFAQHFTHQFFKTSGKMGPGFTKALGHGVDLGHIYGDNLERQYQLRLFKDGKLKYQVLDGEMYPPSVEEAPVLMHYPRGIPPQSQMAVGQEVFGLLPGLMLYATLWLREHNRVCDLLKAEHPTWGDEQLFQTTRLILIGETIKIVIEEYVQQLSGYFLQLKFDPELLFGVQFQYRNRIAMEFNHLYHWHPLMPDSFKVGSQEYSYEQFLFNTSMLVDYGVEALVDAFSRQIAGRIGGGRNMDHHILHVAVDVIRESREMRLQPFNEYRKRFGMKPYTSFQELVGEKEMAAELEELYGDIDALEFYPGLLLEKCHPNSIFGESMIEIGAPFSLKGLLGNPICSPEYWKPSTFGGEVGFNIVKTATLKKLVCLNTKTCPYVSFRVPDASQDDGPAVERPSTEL

[7] = target: T3, 3-hydroxy-3-methylglutaryl-coenzyme A reductase (Homo sapiens, UniProt P04035); set-up: species or system Escherichia coli;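 note: enzyme inhibition assay of HMG-CoA reductase using radiolabeled [14C]HMG-CoA as substrate; in other assays of this panel Not Active means under 50% inhibition at 10 µM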
T3 sequence (P04035 whole entry): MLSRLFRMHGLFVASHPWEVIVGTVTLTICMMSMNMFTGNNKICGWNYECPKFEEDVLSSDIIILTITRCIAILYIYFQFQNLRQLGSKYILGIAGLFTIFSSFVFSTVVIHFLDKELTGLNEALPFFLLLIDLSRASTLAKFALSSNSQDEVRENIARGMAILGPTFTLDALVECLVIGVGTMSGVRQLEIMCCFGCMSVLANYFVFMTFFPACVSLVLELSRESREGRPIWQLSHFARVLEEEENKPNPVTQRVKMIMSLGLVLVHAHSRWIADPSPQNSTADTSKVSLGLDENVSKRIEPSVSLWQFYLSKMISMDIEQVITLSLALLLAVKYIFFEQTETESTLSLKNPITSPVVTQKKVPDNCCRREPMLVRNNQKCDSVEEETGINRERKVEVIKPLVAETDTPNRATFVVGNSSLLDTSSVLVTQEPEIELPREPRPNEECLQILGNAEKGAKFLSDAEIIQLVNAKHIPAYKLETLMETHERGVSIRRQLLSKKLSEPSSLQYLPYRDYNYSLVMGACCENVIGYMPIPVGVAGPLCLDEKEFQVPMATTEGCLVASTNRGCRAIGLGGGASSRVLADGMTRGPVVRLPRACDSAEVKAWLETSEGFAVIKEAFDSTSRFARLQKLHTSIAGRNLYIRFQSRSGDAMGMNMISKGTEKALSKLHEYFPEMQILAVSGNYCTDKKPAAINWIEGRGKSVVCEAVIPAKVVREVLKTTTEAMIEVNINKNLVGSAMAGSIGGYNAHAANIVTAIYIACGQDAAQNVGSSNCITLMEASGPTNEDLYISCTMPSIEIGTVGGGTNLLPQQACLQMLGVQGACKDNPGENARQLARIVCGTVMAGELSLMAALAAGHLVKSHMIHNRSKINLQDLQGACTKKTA

Chain of Adenosine receptor A2a (P29274 whole entry): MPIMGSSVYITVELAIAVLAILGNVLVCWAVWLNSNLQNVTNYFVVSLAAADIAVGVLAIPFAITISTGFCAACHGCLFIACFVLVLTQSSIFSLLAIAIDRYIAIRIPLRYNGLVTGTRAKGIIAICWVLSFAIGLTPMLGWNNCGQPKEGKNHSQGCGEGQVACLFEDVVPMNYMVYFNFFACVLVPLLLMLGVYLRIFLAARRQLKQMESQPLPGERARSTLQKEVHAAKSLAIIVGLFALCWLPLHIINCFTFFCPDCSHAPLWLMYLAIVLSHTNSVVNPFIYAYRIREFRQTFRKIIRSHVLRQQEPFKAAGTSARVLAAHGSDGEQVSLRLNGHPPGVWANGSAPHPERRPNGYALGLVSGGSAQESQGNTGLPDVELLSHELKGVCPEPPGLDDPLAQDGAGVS

| Compound | IC50 (Adenosine receptor A2a) | IC50 [1] | IC50 [2] | Ki [2] | IC50 [3] | Ki [3] | IC50 [4] | IC50 [5] | IC50 ([6]; platelet) | IC50 [7] | IC50 ([6]; read-out: IC50) [nM] | Ki (Adenosine receptor A2a) | Ki [1] | Ki [4] | Ki [5] | Ki ([6]; platelet) | Ki [7] |
| --- | --- | --- | --- | --- | --- | --- | --- | --- | --- | --- | --- | --- | --- | --- | --- | --- | --- |
| CC1(C)O[C@@H]2C[C@H]3[C@@H]4CCC5=CC(=O)C=C[C@]5(C)[C@@]4(F)[C@@H](O)C[C@]3(C)[C@]2(C(=O)CO)O1 [TRIAMCINOLONE ACETONIDE] | Not Active | Not Active | Not Active | Not Active | Not Active | Not Active | Not Active | Not Active | Not Active | Not Active |  |  |  |  |  |  |  |
| N#CC(C#N)=Cc1ccc(O)c(O)c1 [TYRPHOSTIN 23] | Not Active | Not Active | Not Active | Not Active | Not Active | Not Active | Not Active | Not Active | Not Active | Not Active |  |  |  |  |  |  |  |
| Nc1nc2nc[nH]c2c(=S)[nH]1 [THIOGUANINE] | Not Active | Not Active | Not Active | Not Active | Not Active | Not Active | Not Active | Not Active |  | Not Active | 601 |  |  |  |  |  |  |
| NS(=O)(=O)c1cc2c(cc1Cl)NC(C(Cl)Cl)NS2(=O)=O (stereo unspecified) [TRICHLORMETHIAZIDE] | Not Active | Not Active | Not Active | Not Active | Not Active | Not Active | Not Active | Not Active | Not Active | Not Active |  |  |  |  |  |  |  |
| CC(C)(C)NC(=O)[C@@H]1C[C@@H]2CCCC[C@@H]2CN1C[C@@H](O)[C@H](Cc1ccccc1)NC(=O)[C@H](CC(N)=O)NC(=O)c1ccc2ccccc2n1 | Not Active | Not Active | Not Active | Not Active | Not Active | Not Active | Not Active | Not Active | Not Active | Not Active |  |  |  |  |  |  |  |
| SODIUM NITROPRUSSIDE | Not Active | Not Active | Not Active | Not Active | Not Active | Not Active | Not Active | Not Active | Not Active | Not Active |  | Not Active | Not Active | Not Active | Not Active | Not Active | Not Active |
| NC[C@H]1CC[C@H](C(=O)O)CC1 [TRANEXAMIC ACID] | Not Active | Not Active | Not Active | Not Active | Not Active | Not Active | Not Active | Not Active | Not Active | Not Active |  |  |  |  |  |  |  |
| N[C@@H]1[C@H]2CN(c3nc4c(cc3F)c(=O)c(C(=O)O)cn4-c3ccc(F)cc3F)C[C@@H]12 [TROVAFLOXACIN] | Not Active | Not Active | Not Active | Not Active | Not Active | Not Active | Not Active | Not Active | Not Active | Not Active |  |  |  |  |  |  |  |
| CC[C@@H](CO)NC(=O)[C@@H]1C=C2c3cccc4[nH]cc(c34)C[C@H]2N(C)C1 [METHYLERGONOVINE] | Not Active | Not Active | Not Active | Not Active | Not Active | Not Active | Not Active | Not Active | Not Active | Not Active |  |  |  |  |  |  |  |
| Cc1cccc(N(C)C(=S)Oc2ccc3ccccc3c2)c1 [TOLNAFTATE] | Not Active | Not Active | Not Active | Not Active | Not Active | Not Active | Not Active | Not Active | Not Active | Not Active |  |  |  |  |  |  |  |
| Cc1oncc1C(=O)Nc1ccc(C(F)(F)F)cc1 [LEFLUNOMIDE] | Not Active | Not Active | Not Active | Not Active | Not Active | Not Active | Not Active | Not Active | Not Active | Not Active |  |  |  |  |  |  |  |
| Nc1nc2ccc(OC(F)(F)F)cc2s1 [RILUZOLE] | Not Active | Not Active | Not Active | Not Active | Not Active | Not Active | Not Active | Not Active | Not Active | Not Active |  |  |  |  |  |  |  |
| Cc1c(C)c2c(c(C)c1O)CCC(C)(COc1ccc(CC3SC(=O)NC3=O)cc1)O2 (stereo unspecified) [TROGLITAZONE] | Not Active | Not Active | Not Active | Not Active | Not Active | Not Active | Not Active | Not Active | Not Active | Not Active |  |  |  |  |  |  |  |
| CCCOc1ccccc1-c1nc2nn[nH]c2c(=O)[nH]1 [ZAPRINAST] | Not Active | Not Active | Not Active | Not Active | Not Active | Not Active | Not Active | Not Active | Not Active | Not Active |  |  |  |  |  |  |  |
| CC[C@]1(O)C[C@H]2CN(CCc3c([nH]c4ccccc34)[C@@](C(=O)OC)(c3cc4c(cc3OC)N(C=O)[C@H]3[C@@](O)(C(=O)OC)[C@H](OC(C)=O)[C@]5(CC)C=CCN6CC[C@]43[C@@H]65)C2)C1 [VINCRISTINE] | Not Active | Not Active | Not Active | Not Active | Not Active | Not Active | Not Active | Not Active | Not Active | Not Active |  |  |  |  |  |  |  |
| COc1c(C)c2c(c(O)c1C/C=C(\C)CCC(=O)O)C(=O)OC2 [MYCOPHENOLIC ACID] | Not Active | Not Active | Not Active | Not Active | Not Active | Not Active | Not Active | Not Active | Not Active | Not Active |  |  |  |  |  |  |  |
| O=NN(CCCl)C(=O)NC1CCCCC1 [LOMUSTINE] | Not Active | Not Active | Not Active | Not Active | Not Active | Not Active | Not Active | Not Active | Not Active | Not Active |  |  |  |  |  |  |  |
